The record followed here is patent publication US10766866B2, “Deterrents for arthropods and marine organisms” (priority 2017, dated 2020).

Holding throughout (format): cell-based
Assay [1] has as its system Periplaneta americana OctR (PaOctR). The assay can be described thus: OctR activation, change in intracellular calcium. The conditions noted are these: Periplaneta cockroach OctR over Homo sapien α2-AR subtypes. The source says: (§1) Functional expression of cloned arthropod OctRs and human α2-ARs: The cDNAs for α-like OctRs from different arthropod species (e.g., Anopheles gambiae, Aedes aegypti, Periplaneta americana, Drosophila melanogaster, Ixodes scapularis, Balanus improvises) and for α2-AR subtypes from humans were individually subcloned into mammalian expression vectors. These plasmids, which harbor a resistance gene for the selection drug G418 and the cDNA sequence for the receptor of interest, were individually transfected into mammalian cells using a calcium phosphate precipitation method. G418 selection was then employed to generated stable clonal cell lines. Utilizing rapid filtration radioligand binding techniques, the cell surface density of receptor expression of the individual clonal cell lines was determined at equilibrium and those with similar high levels of expression were selected for further experiments. Briefly, binding conditions were 50 mM Tris binding buffer pH 7.4 at 25° C. and an ice-cold wash buffer 10 mM Tris-HCl, pH 7.4). The radioligand was [3H]rauwolscine and non-specific binding was determined in the presence of 10 μM atipamezole. Following the addition of membranes prepared from the clonal cell lines, samples were mixed and allowed 2 hr. to reach equilibrium before rapid filtration and washing through 0.3% PEI-treated GF/C filters. The radioactivity remaining on the filters was quantified by scintillation counting. Receptor density (Bmax) was back calculated knowing the specific activity of the radioligand and applying the equation for a square hyperbola model: Bmax=(Y·(KD+X))/X, where Y is [specifically bound radioligand] and X=[radio ligand concentration]. The affinity (KD) for the radioligand for each receptor was determined in separate saturation isotherm binding experiments using the same binding conditions as describe above.
(§2) Measurement of OctR activation by measuring changes in intracellular calcium: Activation of arthropod α-like OctRs increases intracellular calcium via a Gq-coupling mechanism. This involves activation of phospholipase C leading to an increase in intracellular inositol triphosphate (IP3) which then activates IP3-gated calcium channels in the endoplasmic reticulum causing a transient rise in intracellular calcium. These changes in intracellular calcium upon OctR activation were measured by loading cells with intracellular calcium sensitive dye CALCIUM 6QR and reading the change in calcium-induced fluorescent signal over time on a FlexStation 3 microplate reader.
In general terms: A change in cytosolic calcium serves as a functional read-out for many receptors and channels.

The subject of assay [2] is Ixodes scapularis tick OctR (IsTOctR). Description: OctR activation, change in intracellular calcium. Conditions: Ixodes tick OctR over Homo sapien α2-AR subtypes.
Text: as §1, §2

Assay [3] relates to Anopheles gambiae mosquito isoform A OctR (AgAOctR). Description: OctR activation, change in intracellular calcium. Conditions: AgAOctR over Homo sapien α2-AR subtypes.
Text: as §1, §2

The target of assay [4] is T1, PaOctR (Periplaneta octopamine receptor), cloned α-like OctR (Periplaneta americana, UniProt Q7YWB7).
T1 construct: Gq calcium readout
T1 sequence (Q7YWB7 1-628): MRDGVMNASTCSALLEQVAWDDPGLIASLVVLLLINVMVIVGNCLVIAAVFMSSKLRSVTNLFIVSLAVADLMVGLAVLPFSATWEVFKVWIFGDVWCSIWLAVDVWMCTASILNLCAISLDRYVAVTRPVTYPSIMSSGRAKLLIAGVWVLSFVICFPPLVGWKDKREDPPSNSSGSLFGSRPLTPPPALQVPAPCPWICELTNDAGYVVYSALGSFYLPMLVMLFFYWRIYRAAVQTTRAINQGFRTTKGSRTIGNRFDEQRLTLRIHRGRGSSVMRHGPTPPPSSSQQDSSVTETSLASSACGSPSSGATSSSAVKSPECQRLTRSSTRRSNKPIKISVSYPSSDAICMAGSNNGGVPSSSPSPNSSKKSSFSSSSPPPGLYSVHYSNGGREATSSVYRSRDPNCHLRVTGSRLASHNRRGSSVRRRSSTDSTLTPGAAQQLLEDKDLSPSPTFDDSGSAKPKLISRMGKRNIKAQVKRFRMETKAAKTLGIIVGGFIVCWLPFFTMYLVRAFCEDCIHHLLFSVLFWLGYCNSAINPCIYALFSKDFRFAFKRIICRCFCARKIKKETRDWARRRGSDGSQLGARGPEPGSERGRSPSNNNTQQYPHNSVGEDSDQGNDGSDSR
The assay can be described thus: OctR activation: change in intracellular calcium (CALCIUM 6QR dye, FlexStation 3) in stably transfected mammalian cells. The conditions noted are these: agonist.
Text: as §1, §2

For assay [5], the target named is T2, DmOctR (Drosophila octopamine receptor), cloned α-like OctR (Drosophila melanogaster, UniProt Q7JQF1).
T2 construct: Gq calcium readout
T2 sequence (Q7JQF1 1-645): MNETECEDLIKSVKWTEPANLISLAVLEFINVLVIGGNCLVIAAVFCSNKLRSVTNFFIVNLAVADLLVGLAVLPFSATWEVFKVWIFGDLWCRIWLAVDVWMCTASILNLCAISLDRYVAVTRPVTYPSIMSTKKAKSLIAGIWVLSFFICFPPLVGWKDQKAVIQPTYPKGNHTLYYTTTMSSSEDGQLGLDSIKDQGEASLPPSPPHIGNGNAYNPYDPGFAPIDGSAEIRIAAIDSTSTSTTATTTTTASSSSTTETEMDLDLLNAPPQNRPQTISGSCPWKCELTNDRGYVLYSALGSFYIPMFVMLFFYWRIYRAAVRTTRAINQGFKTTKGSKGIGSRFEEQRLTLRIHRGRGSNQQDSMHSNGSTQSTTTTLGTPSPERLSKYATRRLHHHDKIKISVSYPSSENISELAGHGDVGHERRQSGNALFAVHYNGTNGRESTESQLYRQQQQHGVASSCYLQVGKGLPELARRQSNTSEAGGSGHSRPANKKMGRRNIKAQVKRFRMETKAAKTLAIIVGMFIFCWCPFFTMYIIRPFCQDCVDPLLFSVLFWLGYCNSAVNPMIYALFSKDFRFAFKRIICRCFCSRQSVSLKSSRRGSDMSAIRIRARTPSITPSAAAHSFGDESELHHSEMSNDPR
Described as above. Conditions: agonist.
Text: as §1, §2

The target in assay [6] is T3, AgAOctR (Anopheles octopamine receptor isoform A), cloned α-like OctR (Anopheles gambiae, UniProt Q7PRZ8).
T3 construct: Gq calcium readout
T3 sequence (Q7PRZ8 1-592): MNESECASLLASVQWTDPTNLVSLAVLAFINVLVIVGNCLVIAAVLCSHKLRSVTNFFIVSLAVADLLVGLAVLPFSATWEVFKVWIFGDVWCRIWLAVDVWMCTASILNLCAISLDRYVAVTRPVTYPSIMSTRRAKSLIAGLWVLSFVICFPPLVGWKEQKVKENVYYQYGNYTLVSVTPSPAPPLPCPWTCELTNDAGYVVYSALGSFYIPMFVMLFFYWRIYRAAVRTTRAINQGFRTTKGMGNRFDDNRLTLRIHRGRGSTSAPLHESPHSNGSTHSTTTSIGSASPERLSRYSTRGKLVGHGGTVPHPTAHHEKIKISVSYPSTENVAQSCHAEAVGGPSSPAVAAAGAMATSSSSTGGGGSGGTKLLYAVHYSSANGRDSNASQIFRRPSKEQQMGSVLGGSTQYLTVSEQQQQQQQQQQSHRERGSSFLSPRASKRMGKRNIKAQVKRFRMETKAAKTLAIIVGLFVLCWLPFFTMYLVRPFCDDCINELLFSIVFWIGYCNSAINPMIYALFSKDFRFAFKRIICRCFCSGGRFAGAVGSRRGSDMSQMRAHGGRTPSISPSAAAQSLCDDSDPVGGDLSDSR
The assay is described as above. Conditions: agonist.
Text: as §1, §2

In general, EC50 refers to the midpoint of the concentration-response curve.

SMILES strings stand for the structures.

Turning to `C=C(c1cnc[nH]1)c1cccc(C)c1C` [AZ0027], the “selectivity Ki(Hsα2-AR)/EC50(OctR)” value in assay [1], in assay [2] and in assay [3] was “highly selective” in each case. Further, the EC50 in assay [4] was 0.44 ± 0.23 nM; in assay [5] it was 8.7 ± 2.7 nM; in assay [6], 0.013 ± 0.0046 nM.
